Laboratory results taken from patent US20100216761A1, “NOVEL AZETIDINONES USEFUL AS INHIBITORS OF ELASTASE” (priority 2007, published 2010).

Tests used:
[1] = target: T1, Human Leukocyte Elastase (HLE) (Homo sapiens, UniProt P08246); assay: HLE time-dependent inactivation assay, purified elastase; type: biochemical; conditions: purified elastase 3 nM; inhibitor 26.5 nM; substrate 1 mM
T1 construct: The PMN lysates were prepared by isolating human neutrophils from whole blood; from tissue; host or cells: human neutrophils (PMN) isolated from whole blood, lysed by sonication in PBS
T1 sequence (P08246 30-267): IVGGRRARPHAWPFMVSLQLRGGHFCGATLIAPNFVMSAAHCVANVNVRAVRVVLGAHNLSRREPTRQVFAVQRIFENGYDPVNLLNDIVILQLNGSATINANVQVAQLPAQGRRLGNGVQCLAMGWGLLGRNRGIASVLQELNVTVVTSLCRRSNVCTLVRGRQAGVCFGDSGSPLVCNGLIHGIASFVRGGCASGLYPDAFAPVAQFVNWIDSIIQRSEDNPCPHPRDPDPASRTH
Protocol: (§1) As exemplified in Table 1, the Examples 1-6 of this application were determined to be potent, mechanism-based inactivators of Human Leukocyte Elastase (HLE) in two different in vitro time-dependent incubation assays. The two assays are described at the end of this Biological Data Section in Note 1. See the literature references in Note 2 for a discussion of the mechanism for this type of beta-lactam inactivation of HLE. Two sources of enzyme were used; either purified elastase or crude extracts of human polymorphonuclear leukocytes (PMN) containing elastase activity. […] For the compound of Example 1, the results were 638,000 M^−1 sec^−1 (average of n=3) and 809,000 M^−1 sec^−1 (n=4), respectively, and for Example 3, 804,000 M^−1 sec^−1 (average of n=4) and 952,000 M^−1 sec^−1 (n=5). […] Note that in this assay, head-to-head comparisons are particularly valuable.
(§2) Note 1: Enzyme Assays for the Inhibition of Human Polymorphonuclear Leukocyte Elastase Via Hydrolysis of N-Methyoxysuccinyl-alanyl-alanyl-prolylalanine-p-nitroanilide Reagent.
(§3) Prepare substrate by first dissolving in DMSO to 30 mg/ml (50 mM). Further dilute the substrate to 10 mM and add 25 μl to a final volume of 250 μl for a final concentration of 1 mM in the assay.
(§4) Prepare the enzyme in TES Buffer (0.045M TES (N-tris[hydroxymethyl]methyl-2-mino-ethanesulfonic acid), 0.45 M NaCl, pH 7.5.). Two sources of enzyme were used; either crude extracts of human polymorphonuclear leukocytes (PMN) containing elastase activity or purified elastase. The PMN lysates were prepared by isolating human neutrophils from whole blood after dextran sedimentation, ficoll density separation and red blood cell lysis. The neutrophils were lysed in PBS with sonciation and the concentration of active enzyme was determined by utilizing a standard curve of purified enzyme. For the purified elastase, the enzyme was resuspended at 10 mg/ml (˜340 μM) in 0.02M NaOAc, 50% glycerol. For both the PMN lysate and purified enzyme, a further dilution of enzyme was made to 30 nM and 25 μl was added to a final volume of 250 μl. The final concentration of enzyme in the assay was 3 nM.
(§5) The inhibitors to be tested were dissolved in DMSO at 10 mM. Directly before use, the inhibitors were further diluted into TES Buffer to 265 nM and […] was added to a final volume of 250 μl. The final concentration of inhibitor in the assay was 26.5 nM.
(§6) In a 96-well plate (flat bottom, polystyrene) 175 μl TES Buffer, 25 μl substrate, 25 μl inhibitor and 25 μl enzyme were added. After thoroughly mixing, the plate was then read in a spectrophotometer at 410 nm for 30 minutes counting every 10 seconds. Results were expressed as Kinact/Ki which is the second order rate constant in per mole per second for inactivation of the enzyme.

[2] = target: T1, Human Leukocyte Elastase (HLE); assay: HLE time-dependent inactivation assay, PMN cell lysate source of HLE; type: biochemical; conditions: 3 nM, inhibitor 26.5 nM, substrate 1 mM
Protocol: as §1, §2, §3, §4, §5, §6

[3] = Liver microsome stability in 4 species: rat; type: in vitro ADME; conditions: substrate 0.5 uM, microsome 0.25 mg/mL
Protocol: In a separate experiment as exemplified in Table 3, the stability of the current Example 1 and the comparator Compound #290 in incubations with microsome preparations from 4 different species were also determined (Note 5).
X. S. Tong, et. al., J. of Chromatography, 2006, 833, 165.

CYP2C9 = target: T2, CYP2C9 (Homo sapiens, UniProt P11712); assay: CYP-P450 reversible inhibition, 2C9; type: in vitro ADME; conditions: probe fluorogenic probe (not named); human liver microsomes or recombinant P450 microsomes; fluorescent probe
T2 construct: host or cells: human liver microsomes or recombinant P450 microsomes
Protocol: This assay measured the reversible inhibition of the test compounds against three cytochrome P450 isozymes (CYP-P450 3A4, 2C9 and 2D6) in an automated screening formate. […] Cumene hydroperoxide, NADPH or NADPH regenerating systems can be used as electron donors for the P450 catalytic cycle. Control incubations containing no inhibitor or no fluorescent probe were performed to evaluate the 100% and 0% activities, respectively. The activity of P450 enzyme was evaluated in the presence of 0.137, 0.273, 0.547, 1.094, 2.188, 4.375, 8.750, 17.5, 35.0 and 70.0 μM concentrations of the test compounds. Inhibition curves were generated and IC50 values were calculated for each tested compound using standard techniques.

human CYP-3A4 enzyme = assay: P450 CYP-3A4 induction; type: in vitro ADME; conditions: test compound 10 μM vs Rifampicin 10 μM (defined as 100%)
Protocol: This assay measured the in vitro induction of the human CYP-3A4 enzyme in the presence of 0.37, 1.11, 3.33, 10 and 30 μM test compound in an automated formate. The results are expressed as the relative percent induction measured for test compound at the 10 μM concentration compared to the known inducer standard Rifampicin at 10 μM (defined as 100%). (See Durocher, et. al., Anal. Biochem. 2000, 284, 316 for details of the assay).

CYP3A4 = CYP3A4 (Homo sapiens, UniProt P08684)
Sequence of CYP3A4 (P08684 whole entry): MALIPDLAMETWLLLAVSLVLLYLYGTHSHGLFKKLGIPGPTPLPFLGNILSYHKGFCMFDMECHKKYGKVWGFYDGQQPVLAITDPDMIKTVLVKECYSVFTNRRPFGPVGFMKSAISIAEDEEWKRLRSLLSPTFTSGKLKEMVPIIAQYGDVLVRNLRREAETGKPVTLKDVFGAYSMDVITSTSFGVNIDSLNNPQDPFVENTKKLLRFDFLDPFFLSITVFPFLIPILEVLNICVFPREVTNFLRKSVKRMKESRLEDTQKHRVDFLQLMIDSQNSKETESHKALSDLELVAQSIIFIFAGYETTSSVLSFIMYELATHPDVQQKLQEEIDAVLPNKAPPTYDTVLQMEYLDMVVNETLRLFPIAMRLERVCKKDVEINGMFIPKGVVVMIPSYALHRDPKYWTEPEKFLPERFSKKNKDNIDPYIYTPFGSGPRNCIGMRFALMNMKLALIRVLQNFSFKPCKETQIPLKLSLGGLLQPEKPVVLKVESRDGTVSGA
Protocol: This assay measured the pre-incubation time-dependent inhibition of potential CYP-3A4 inhibitors in human liver microsomes using the CYP-3A4 mediated testosterone 6-beta-hydroxylation formate in the presence of test compounds in a semi-automated screening using LC-MS/MS detection. Test compounds are pre-incubated at 37° C. with human liver microsomes (2.5 mg/mL protein) and a NADPH regenerating system for 10, 20, 30 and 40 minutes prior to a ten-fold dilution with a 250 μM solution of testosterone. The diluted reaction is then incubated for 15 minutes at 37° C. The concentration of 6-β-hydroxytestosterone metabolite formed is measured by LC-MS/MS using validated analytical methods. The percent activity remaining is calculated by comparing the amount of marker metabolite formed in the presence of inhibitor compared to no inhibitor control samples at corresponding time points. No inhibitor control samples represent the maximum amount of 6-β-hydroxytestosterone formed under these assay conditions.

T2 sequence (P11712 whole entry): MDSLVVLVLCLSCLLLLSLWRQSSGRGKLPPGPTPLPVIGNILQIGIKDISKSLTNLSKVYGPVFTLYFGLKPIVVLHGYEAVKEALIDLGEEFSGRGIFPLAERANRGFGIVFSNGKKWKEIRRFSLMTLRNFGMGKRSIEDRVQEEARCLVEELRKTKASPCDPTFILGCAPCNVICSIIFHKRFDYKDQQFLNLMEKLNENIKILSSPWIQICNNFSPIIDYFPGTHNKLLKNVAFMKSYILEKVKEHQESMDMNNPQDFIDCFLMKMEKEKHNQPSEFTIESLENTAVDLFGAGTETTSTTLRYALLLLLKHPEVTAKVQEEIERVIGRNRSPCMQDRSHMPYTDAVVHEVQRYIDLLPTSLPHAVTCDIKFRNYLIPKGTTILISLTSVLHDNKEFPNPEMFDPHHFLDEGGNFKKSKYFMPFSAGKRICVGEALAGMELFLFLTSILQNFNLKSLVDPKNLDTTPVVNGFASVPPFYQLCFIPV

| SMILES | kinact/KI [1] [M⁻¹ s⁻¹] | kinact/KI [2] [M⁻¹ s⁻¹] | % Left @ 30 min [3] [%] | % Left @ 60 min [3] [%] | IC50 (CYP2C9) [µM] | CYP-3A4 Induction % of Rifampicin response @ 10 μM (human CYP-3A4 enzyme) [%] | P450 CYP-3A4 Time-Dependent Inhibition rate @ 10 μM (#1) (CYP3A4) [min⁻¹] | P450 CYP-3A4 Time-Dependent Inhibition rate @ 10 μM (#2) (CYP3A4) [min⁻¹] | P450 CYP-3A4 Time-Dependent Inhibition rate @ 50 μM (CYP3A4) [min⁻¹] |
| --- | --- | --- | --- | --- | --- | --- | --- | --- | --- |
| CCC[C@@H](NC(=O)N1C(=O)C(CC)(CC)[C@@H]1Oc1ccc(C(=O)N(CC)CCN(C)C)cc1)c1ccc(OC(F)(F)F)cc1 [Example 1, 2-(S)-[4-(((2-(Dimethylamino)ethyl)ethylamino)carbonyl)phenoxy]-3,3-diethyl-N-[1-(R)-(4-(trifluoromethoxy)phenyl)butyl]-4-oxo-1-azetidinecarboxamide] | 638000 | 809000 | 96 | 94 | > 8 | 5 | 0.005 | 0.008 | 0.018 |
| CCC[C@@H](NC(=O)N1C(=O)C(CC)(CC)[C@@H]1Oc1ccc(C(=O)N(C)CCN(C)C)cc1)c1ccc(OC)cc1 [Compound #290, reference compound] | 523000 | – | 99 | 93 | > 8 | 6 | 0.017 | 0.008 | 0.018 |
| CCC[C@@H](NC(=O)N1C(=O)C(CC)(CC)[C@@H]1Oc1ccc(C(=O)N(CC)CCN(C)C)cc1)c1ccc(C(F)(F)F)cc1 [Example 3, 2-(S)-[4-(((2-(Dimethylamino)ethyl)ethylamino)carbonyl)phenoxy]-3,3-diethyl-N-[1-(R)-(4-(trifluoromethyl)phenyl)butyl]-4-oxo-1-azetidinecarboxamide] | 804000 | 952000 | – | – | – | 0 | 0.014 | – | – |
